Experimental data: PMC9629705, “Canonical strigolactones are not the major determinant of tillering but important rhizospheric signals in rice” (Science Advances, 2022)

Tests used:
[1] = molecular target: T1, OsMAX1-1400 (Oryza sativa, UniProt W5QV10); assay: LC-MS/MS enzyme assay (4DO to orobanchol) with microsomes of yeast overexpressing the enzyme; format: biochemical
T1 construct: gene Os01g0701400
T1 sequence (W5QV10 1-541): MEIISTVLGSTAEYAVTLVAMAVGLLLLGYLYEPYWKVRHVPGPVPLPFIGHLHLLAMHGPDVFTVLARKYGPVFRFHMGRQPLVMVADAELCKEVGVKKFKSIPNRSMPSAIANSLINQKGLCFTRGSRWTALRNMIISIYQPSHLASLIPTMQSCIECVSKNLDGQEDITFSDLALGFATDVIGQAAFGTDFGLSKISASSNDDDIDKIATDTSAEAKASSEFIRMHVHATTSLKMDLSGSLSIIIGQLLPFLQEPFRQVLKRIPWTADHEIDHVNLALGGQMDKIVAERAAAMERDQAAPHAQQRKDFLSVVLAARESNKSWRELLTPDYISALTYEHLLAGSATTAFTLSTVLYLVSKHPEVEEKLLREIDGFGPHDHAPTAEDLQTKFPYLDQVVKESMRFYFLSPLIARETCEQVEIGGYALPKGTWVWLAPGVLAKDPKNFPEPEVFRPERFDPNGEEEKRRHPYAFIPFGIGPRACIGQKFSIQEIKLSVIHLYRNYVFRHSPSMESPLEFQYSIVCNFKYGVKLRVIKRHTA

[2] = molecular target: T2, OsMAX1-900 (Oryza sativa, UniProt M9R6D3); assay: LC-MS/MS enzyme assay (CL to CLA, CLA to 4DO) with microsomes of yeast overexpressing the enzyme; format: biochemical
T2 construct: gene Os01g0700900
T2 sequence (M9R6D3 1-539): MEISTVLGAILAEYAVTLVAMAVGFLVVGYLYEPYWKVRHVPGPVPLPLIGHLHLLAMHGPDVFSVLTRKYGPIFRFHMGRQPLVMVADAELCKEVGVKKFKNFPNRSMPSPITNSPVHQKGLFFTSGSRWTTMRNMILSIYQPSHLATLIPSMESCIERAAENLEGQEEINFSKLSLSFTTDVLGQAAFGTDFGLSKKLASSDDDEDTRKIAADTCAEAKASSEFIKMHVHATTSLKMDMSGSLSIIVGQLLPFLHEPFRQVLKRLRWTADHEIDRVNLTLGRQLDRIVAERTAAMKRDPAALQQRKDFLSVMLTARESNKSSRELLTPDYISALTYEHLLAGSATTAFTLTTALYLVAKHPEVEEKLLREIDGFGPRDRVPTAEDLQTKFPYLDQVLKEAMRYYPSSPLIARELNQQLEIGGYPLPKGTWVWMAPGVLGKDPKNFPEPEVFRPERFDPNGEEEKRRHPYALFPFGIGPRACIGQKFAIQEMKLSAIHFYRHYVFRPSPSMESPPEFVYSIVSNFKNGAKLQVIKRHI

IC50 [1]: 20 nM | IC50 [2]: 150 nM
Structure (SMILES): O=C(c1ccccc1)C(CCCCOc1ccccc1)n1cncn1 (centres unmarked) [TIS108]
